Experimental findings from publication PMC3754872 (The Journal of Experimental Medicine, 2013) are described below.

Each structure is given as a SMILES string.

Assay [1] has as its target T1, CXCR2 (Mus musculus, UniProt P35343).
T1 sequence (P35343 1-359): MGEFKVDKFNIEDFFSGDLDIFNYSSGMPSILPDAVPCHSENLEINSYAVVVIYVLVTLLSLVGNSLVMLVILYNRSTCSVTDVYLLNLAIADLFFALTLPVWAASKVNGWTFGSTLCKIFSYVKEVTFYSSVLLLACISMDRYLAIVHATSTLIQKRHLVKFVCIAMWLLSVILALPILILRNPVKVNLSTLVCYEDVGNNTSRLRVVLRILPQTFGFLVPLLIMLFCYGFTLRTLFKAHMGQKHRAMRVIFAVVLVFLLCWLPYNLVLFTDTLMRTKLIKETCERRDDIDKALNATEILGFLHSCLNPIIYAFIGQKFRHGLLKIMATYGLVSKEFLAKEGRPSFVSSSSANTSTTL
Briefly: displacement of […]-IL-8 from CXCR2-expressing L1.[…] cells. It is filed as binding.

The target of assay [2] is T1, CXCR2. Briefly: inhibition of agonist-stimulated. It is filed as biochemical.

Regarding `CC(C)CCC(O)[C@@H](C)[C@H]1CC[C@H]2[C@@H]3CC=C4C[C@@H](O)CC[C@]4(C)[C@H]3CC[C@]12C` (stereo partly drawn) [22R-HC], it took 1320 ± 250 nM to reach a half-maximal effect on CXCR2 [1] (EC50).
At CXCR2 [2], `O=C(Nc1ccc([N+](=O)[O-])cc1O)Nc1ccccc1Br` [SB225002] returned an IC50 of 16.6 ± 3.64 nM.
